Test results taken from patent EP0369391A2, “N-substituted amides” (BOEHRINGER INGELHEIM PHARMACEUTICALS INC., priority 1988, dated 1990).
Where “and” joins values, the source holds several entries; their conditions need not be identical. Identical values can stand only once. Like-named read-outs stand apart in the source and are kept apart here.

Assays:
[1] = molecular target: T1, Human sputum elastase ( HSE ) (Homo sapiens, UniProt P08246); test: Elastase Inhibition - In Vitro Method (hydrolysis of MeO-Suc-Ala-Ala-Pro-Val-pNA, microtiter format); format: biochemical; conditions: for inhibition at 5 µg/mL: 5ug/mL compound; for IC50: 0.5 mM substrate, 15 minutes pre-incubation
T1 construct: Human sputum elastase ( HSE ) (Elasten Products Co., Pacific, Mo.); purchased Elasten Products Co., Pacific, Mo; host or cells: human sputum (by the name of the product)
T1 sequence (P08246 30-267): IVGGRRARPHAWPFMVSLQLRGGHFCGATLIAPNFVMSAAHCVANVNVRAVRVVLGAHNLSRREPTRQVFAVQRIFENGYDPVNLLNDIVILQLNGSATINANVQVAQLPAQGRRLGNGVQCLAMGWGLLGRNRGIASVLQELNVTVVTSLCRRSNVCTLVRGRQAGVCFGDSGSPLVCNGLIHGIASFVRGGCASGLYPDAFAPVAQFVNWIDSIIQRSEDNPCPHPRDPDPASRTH
Text: The in vitro assay is based upon the hydrolysis of the commercially available (Sigma Chemical Company, St. Louis, Missouri) substrate methoxy O-succinyl-L-alanyl-L-alanyl-L-prolyl-L-valine para-nitroanilide (MeO-Suc-Ala-Sla-Pro-Val-pNA) and the resulting release of p-nitroanilide (pNA), which absorbs at 405 nm.
• a. Microtiter plates (96 well, flat bottom) • b. Vmax Kinetic Microtiter Plate Reader, equipped with 405 nm filter (Molecular Devices) • c. Microtiter Plate Mixer (Fisher Scientific) • d.
• a. Human sputum elastase ( HSE ) (Elasten Products Co., Pacific, Mo.) dissolved in 1 mg/mL in 0.05 M sodium chloride and frozen (50 µL aliquots) at -20°C until used. • b. Stock solution of MeO-Suc-Ala-Ala-Pro-Val-pNA dissolved at 15 mM in dimethylsulfoxide (DMSO) and frozen (4 mL aliquots) at -20°C until used. • c. Assay buffer: 0.1 M Tris buffer, pH 7.5 containing 0.5 sodium chloride
Screening is performed in microtiter plates, using 0.5 mM substrate and monitored on a Microtiter Reader. Enzyme activity (+/- test compound) is determined as the rate of pNA release (linear regression analysis of slope). Inhibitory activity of the test compound is calculated relative to the uninhibited enzyme control, as follows: [formula]
A frozen aliquot of HSE is thawed and diluted with assay buffer to a stock concentration of 0.02 mg/mL ( 30 x assay concentration). A frozen aliquot of the substrate stock solution is thawed and diluted to 0.5 mM with the assay buffer (final DMSO concentration is […]). 10 µl of the test compound stock solution (or assay buffer) and 10 µl of the HSE stock solution are pipetted into each microtiter well, in duplicate. The plate is mixed well, and pre-incubated at room temperature for 15 minutes. A 300 µl substrate solution is then added to each well and the OD₄₀₅ is followed for approximately 30 minutes.

[2] = molecular target: T2, human neutrophil elastase (HNE) (Homo sapiens, UniProt P08246); test: Elastase Inhibition - Animal Model (acute hamster hemorrhage model); conditions: 20 ug i.t. compound, 50 µg HNE i.t., hemorrhage in lung lavage after 18 hours
T2 sequence (P08246 30-247 limits assumed): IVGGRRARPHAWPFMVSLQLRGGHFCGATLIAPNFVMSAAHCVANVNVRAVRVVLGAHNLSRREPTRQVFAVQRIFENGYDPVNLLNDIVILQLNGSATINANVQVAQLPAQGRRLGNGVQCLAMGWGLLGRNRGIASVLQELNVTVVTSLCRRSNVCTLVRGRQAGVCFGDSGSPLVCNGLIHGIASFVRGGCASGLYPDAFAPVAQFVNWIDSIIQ

Human Cathepsin B = Human Cathepsin B (Homo sapiens, UniProt P07858); test: Selectivity assay: Human Cathepsin B; format: biochemical; conditions: IC50 of 5 or greater is considered inactive
PT = conditions: IC50 of 5 or greater is considered inactive
Polio 3C - Proteinase = Polio 3C - Proteinase (Poliovirus type 1, UniProt P03300); test: biochemical
Total Complement = test: Selectivity assay: Total Complement; conditions: IC50 of 5 or greater is considered inactive
Human Renin = molecular target: T3, Human Renin (Homo sapiens, UniProt P00797); test: Selectivity assay: Human Renin; format: biochemical; conditions: IC50 of 5 or greater is considered inactive
T3 sequence (P00797 67-406): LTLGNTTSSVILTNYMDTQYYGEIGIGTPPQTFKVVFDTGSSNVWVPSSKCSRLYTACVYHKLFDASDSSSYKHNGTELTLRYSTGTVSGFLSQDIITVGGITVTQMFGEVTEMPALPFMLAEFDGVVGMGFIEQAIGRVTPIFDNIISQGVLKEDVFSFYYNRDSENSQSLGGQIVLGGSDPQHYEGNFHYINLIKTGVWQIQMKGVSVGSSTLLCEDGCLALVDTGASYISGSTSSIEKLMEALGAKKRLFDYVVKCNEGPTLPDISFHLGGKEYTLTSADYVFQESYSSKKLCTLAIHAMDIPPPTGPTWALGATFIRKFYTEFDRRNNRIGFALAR

Human C1 Esterase = molecular target: T4, Human C1 Esterase (Homo sapiens, UniProt P09871); test: Selectivity assay: Human C1 Esterase; format: biochemical; conditions: IC50 of 5 or greater is considered inactive
T4 sequence (P09871 16-688): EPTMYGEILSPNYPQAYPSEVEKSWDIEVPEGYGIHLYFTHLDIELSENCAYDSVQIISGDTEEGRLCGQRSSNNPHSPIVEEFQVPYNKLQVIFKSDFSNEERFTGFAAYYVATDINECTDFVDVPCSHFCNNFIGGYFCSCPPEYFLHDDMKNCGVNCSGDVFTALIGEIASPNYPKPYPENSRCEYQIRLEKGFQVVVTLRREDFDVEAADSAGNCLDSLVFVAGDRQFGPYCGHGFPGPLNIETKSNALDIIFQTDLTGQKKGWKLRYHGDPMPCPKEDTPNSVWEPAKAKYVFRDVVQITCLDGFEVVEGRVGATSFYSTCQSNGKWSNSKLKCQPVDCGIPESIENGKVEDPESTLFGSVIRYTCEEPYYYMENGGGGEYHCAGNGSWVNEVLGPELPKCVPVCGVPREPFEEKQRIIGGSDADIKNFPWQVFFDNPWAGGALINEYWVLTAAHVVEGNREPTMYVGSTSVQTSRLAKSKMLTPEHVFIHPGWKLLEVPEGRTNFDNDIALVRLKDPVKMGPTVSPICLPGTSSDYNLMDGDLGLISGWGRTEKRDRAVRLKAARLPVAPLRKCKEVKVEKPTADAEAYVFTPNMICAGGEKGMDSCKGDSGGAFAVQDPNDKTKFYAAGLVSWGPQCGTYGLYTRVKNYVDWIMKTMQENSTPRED

Human Urokinase = Human Urokinase (Homo sapiens, UniProt P00749); test: Selectivity assay: Human Urokinase; format: biochemical; conditions: IC50 of 5 or greater is considered inactive
[3] = molecular target: Tissue Plasminogen Activator (Homo sapiens, UniProt P00750); test: Selectivity assay: Tissue Plasminogen Activator; format: biochemical; conditions: IC50 of 5 or greater is considered inactive
APTT = test: Selectivity assay: APTT; conditions: IC50 of 5 or greater is considered inactive
Human Cathepsin G = molecular target: T5, Human Cathepsin G (Homo sapiens, UniProt P08311); test: Selectivity assay: Human Cathepsin G; format: biochemical; conditions: IC50 of 5 or greater is considered inactive
T5 sequence (P08311 21-244): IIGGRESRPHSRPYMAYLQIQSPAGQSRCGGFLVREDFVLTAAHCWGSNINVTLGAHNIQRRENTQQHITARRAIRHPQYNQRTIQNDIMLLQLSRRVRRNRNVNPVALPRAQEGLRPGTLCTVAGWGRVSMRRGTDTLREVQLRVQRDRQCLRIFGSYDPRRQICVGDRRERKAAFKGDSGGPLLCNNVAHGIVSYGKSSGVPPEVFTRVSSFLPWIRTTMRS

[4] = 0 % HSA, read-out: % Inhib. (5ug/mL) 0 % HSA
[5] = 0.5 % HSA added, read-out: % Inhib. (5ug/mL) 0.5 % HSA

Chain of Polio 3C - Proteinase (P03300 1566-1748 limits assumed): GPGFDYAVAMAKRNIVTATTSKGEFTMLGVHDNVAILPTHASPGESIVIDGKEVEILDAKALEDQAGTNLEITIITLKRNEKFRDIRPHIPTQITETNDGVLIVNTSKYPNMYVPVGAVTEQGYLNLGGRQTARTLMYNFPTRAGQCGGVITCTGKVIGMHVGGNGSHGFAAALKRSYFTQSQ
Chain of Tissue Plasminogen Activator (P00750 36-562): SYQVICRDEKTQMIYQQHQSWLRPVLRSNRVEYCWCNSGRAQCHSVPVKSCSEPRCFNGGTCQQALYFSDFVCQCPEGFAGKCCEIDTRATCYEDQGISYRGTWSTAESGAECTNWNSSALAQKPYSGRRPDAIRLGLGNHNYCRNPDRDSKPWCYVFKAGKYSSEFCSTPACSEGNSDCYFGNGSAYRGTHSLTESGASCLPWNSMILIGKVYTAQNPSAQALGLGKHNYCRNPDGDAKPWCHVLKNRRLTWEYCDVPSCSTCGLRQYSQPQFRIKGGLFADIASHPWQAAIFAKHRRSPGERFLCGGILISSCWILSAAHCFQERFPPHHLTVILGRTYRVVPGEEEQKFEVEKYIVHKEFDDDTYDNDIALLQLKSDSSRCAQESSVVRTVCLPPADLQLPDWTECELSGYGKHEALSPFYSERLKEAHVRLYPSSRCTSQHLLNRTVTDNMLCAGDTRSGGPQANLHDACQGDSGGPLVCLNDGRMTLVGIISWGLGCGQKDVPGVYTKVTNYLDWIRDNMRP

CC(C)C(NC(=O)CN(C(=O)[C@@H](NC(=O)c1ccc(C(=O)NS(=O)(=O)c2ccc(Cl)cc2)cc1)C(C)C)C1CCCC1)C(=O)C(F)(F)F (single isomer, unassigned) [Cyclopentyl, p-[p-Cl(C6H4)SO2NHCO](C6H4)CO - (Diastereomer of Above), [[4-(4-Chlorophenyl)sulfonylaminocarbonyl]phenyl-1-oxomethyl]-L-Valyl-N-cyclopentyl-glycyl-N-[3-(1,1,1-trifluoro-4-methyl-2-oxypentyl)]amide]
inhibition at 5 µg/mL [1, 4]: 99.8%
inhibition at 5 µg/mL [1, 5]: 99.7%
% Inhib. (20 ug. i.t.) [2]: 99.0%

CC(C)C(NC(=O)CN(C(=O)[C@@H](NC(=O)c1ccc(C(=O)NS(=O)(=O)c2ccc(Cl)cc2)cc1)C(C)C)C1CCCC1)C(=O)C(F)(F)F (single isomer, unassigned) [[[4-(4-Chlorophenyl)sulfonylaminocarbonyl]phenyl-1-oxomethyl]-L-Valyl-N-cyclopentyl-glycyl-N-[3-(1,1,1-trifluoro-4-methyl-2-oxypentyl)]amide]
inhibition at 5 µg/mL [1, 4]: 100%
inhibition at 5 µg/mL [1, 5]: 99.8%
IC50 ([1]; Table I, read-out: IC50 (converted)): 0.113 µM and 0.0923 µM
% Inhib. (20 ug. i.t.) [2]: 99.2%

COc1ccc(CCN(CC(=O)NC(C(=O)C(F)(F)F)C(C)C)C(=O)[C@@H](NC(=O)OCc2ccccc2)C(C)C)cc1OC (stereo partly shown) [3,4 - Dimethoxyphenethyl, CBZ]
inhibition at 5 µg/mL [1, 4]: 95.1%
inhibition at 5 µg/mL [1, 5]: 87.8%
IC50 ([1]; Table I): 0.432 mg/L

CC(C)C(NC(=O)CN(C(=O)[C@@H](NC(=O)c1ccc(C(=O)NS(=O)(=O)c2ccc(Cl)cc2)cc1)C(C)C)C1Cc2ccccc2C1)C(=O)C(F)(F)F (stereo partly shown) [Compound of Table III]
IC50 (Human Cathepsin B): > 6.55 µM
IC50 (PT): >> 100 ug/mL
IC50 (Polio 3C - Proteinase): > 82.5 µM
IC50 (Total Complement): >> 100 ug/mL
IC50 (Human Renin): > 6.55 µM
IC50 (Human C1 Esterase): > 6.55 µM
IC50 (Human Urokinase): > 6.55 µM
IC50 [3]: > 6.55 µM
IC50 (APTT): >> 100 ug/mL
IC50 (Human Cathepsin G): > 9.17 µM

CC(C)C(NC(=O)CN(C(=O)[C@@H](NC(=O)OCc1ccccc1)C(C)C)C1CCCC1)C(=O)C(F)(F)F (stereo partly shown) [Cyclopentyl, CBZ]
inhibition at 5 µg/mL [1, 4]: 100%
inhibition at 5 µg/mL [1, 5]: 99.4%
IC50 ([1]; Table I): 0.082 mg/L

COc1ccc(CCN(CC(=O)NC(C(=O)C(F)(F)F)C(C)C)C(=O)[C@@H](NC(=O)c2ccc(C(=O)NS(=O)(=O)c3ccc(Cl)cc3)cc2)C(C)C)cc1OC (stereo partly drawn) [[(4-(4-Chlorophenyl)sulfonylaminocarbonyl]phenyl-1-oxomethyl]-L-Valyl-N-[2-(3,4-dimethoxy)phenethyl] glycyl-N-[3-(1,1,1-trifluoro-4-methyl-2-oxypentyl)] amide]
inhibition at 5 µg/mL [1, 4]: 98.8%
inhibition at 5 µg/mL [1, 5]: 96.3%
IC50 ([1]; IC50, Table I): 0.103 µM
% Inhib. (20 ug. i.t.) [2]: 90.2%

CC(C)C(NC(=O)CN(C(=O)[C@@H](NC(=O)c1ccc(C(=O)NS(=O)(=O)c2ccc(Cl)cc2)cc1)C(C)C)C1CC2CCC1C2)C(=O)C(F)(F)F (stereo partly drawn) [[[4-(4-Chlorophenyl)sulfonylaminocarbonyl]phenyl-1-oxomethyl]-L-Valyl-N-(exo-bicyclo[2,2,1]hept-2-yl)glycyl-N-[3-(1,1,1-trifluoro-4-methyl-2-oxypentyl)]amide]
inhibition at 5 µg/mL [1, 4]: 99.8%
inhibition at 5 µg/mL [1, 5]: 99.5%
IC50 ([1]; Table I): 0.045 mg/L
% Inhib. (20 ug. i.t.) [2]: 93.8%
